Where two headings read alike, the source gives them in different places.
Columns and labels:
MurG [1] = molecular target: T1, MurG (Escherichia coli, UniProt P17443); test: fluorescence polarization displacement assay with labeled donor F1; format: binding, E. coli; conditions: for Kd: read-out: Dissociation constants; for Signal change at 25 μM (drop in fluorescence polarization): 25 μM competitor
GtfB = GtfB (Amycolatopsis orientalis, UniProt P96559); test: biochemical
Procedure: Inhibitors, dissolved in DMSO, were added at the indicated concentrations to 20 μL reactions containing 50 nM GtfB, 2 mM UDP-glucose, 75 mM Tricine (pH 9), 4 mM TCEP and 600 μM vancomycin aglycone. For consistency, all reactions contained 5% DMSO. Reactions were incubated at 37° C. for 1.5 hr, then quenched with 20 μL cold methanol and centrifuged at 13,000 rpm for 10 min. Reaction mixtures were resolved by analytical HPLC, using a gradient of 0-45% acetonitrile in water/0.1% TFA over 15 min, at a flow rate of 1 mL per minute. Product formation was monitored by UV absorbance at 285 nm.

MurG [2] = molecular target: T1, MurG; test: radiometric kinetic assay (incorporation of 14C-GlcNAc into Lipid II), secondary screen and IC50; format: biochemical, E. coli; conditions: for inhibition pattern with respect to UDP-GlcNAc: kinetic analysis
PBP1b = PBP1b (Escherichia coli, UniProt P02919); test: Assays for transglycosylase PBP1b; format: biochemical
PBP1b, sequence (P02919 whole entry): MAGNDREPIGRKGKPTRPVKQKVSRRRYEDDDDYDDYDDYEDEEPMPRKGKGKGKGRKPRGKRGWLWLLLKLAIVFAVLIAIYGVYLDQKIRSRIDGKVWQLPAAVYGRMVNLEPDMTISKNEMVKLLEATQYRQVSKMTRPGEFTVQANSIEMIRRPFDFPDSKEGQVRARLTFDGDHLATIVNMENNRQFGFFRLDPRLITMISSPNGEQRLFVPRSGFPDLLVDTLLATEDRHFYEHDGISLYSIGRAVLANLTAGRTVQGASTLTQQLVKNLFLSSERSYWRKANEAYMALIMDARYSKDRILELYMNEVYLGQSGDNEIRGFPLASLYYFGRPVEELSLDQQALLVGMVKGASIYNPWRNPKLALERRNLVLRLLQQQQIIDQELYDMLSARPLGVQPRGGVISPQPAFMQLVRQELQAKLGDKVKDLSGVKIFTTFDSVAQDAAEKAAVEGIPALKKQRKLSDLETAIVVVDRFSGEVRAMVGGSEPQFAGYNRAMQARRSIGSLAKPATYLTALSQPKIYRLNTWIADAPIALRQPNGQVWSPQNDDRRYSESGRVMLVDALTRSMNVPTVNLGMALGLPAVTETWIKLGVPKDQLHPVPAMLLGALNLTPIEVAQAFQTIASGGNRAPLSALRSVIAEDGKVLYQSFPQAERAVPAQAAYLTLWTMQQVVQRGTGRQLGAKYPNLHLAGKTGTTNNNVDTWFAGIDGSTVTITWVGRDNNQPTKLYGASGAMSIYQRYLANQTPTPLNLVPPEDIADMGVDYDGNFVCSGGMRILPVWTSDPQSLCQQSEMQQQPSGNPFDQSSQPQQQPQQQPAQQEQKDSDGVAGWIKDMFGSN
Procedure: The protein was purified as described. Chen, L., Men, H., Ha, S., Ye, X.-Y., Brunner, L., Hu, Y., Walker, S. Biochemistry 2002; Tetrahedron 58, 6585 (2002). Assays were carried out by separately incubating varying amounts of ^14C-GlcNAc-labeled C35 Lipid II (specific activity=273 cpm/pmol) and inhibitors in eppendorf tubes containing 9 μL of buffer (50 mM HEPES at pH 7.5, 10 mM CaCl2, 1000 U/mL penicillin G, 0.2 mM decyl PEG, and 11% DMSO), and 1 μL PBP1b (from a solution freshly prepared by diluting the 50% glycerol stock 20-fold into 5 mM Tris buffer, pH 8.0, containing 8 mM decyl PEG) for 10 min. Reactions were started by adding 1 μL of the above PBP1b mixture to the substrate solution, and were typically stopped after 15 min by adding 10 μL ice cold 10 mM Tris (pH 8.0) containing 0.2% Triton X-100. Reactions were left on ice until spotted on cellulose chromatography paper (3M Whatman chromatography paper). Products and starting material were separated following the works of Anderson et al. using chromatography (isobutyric acid: 1N NH4OH=5:3) and quantitated by scintillation counting. Biochemistry 53, 881 (1965).

OGT = molecular target: T2, OGT (Homo sapiens, UniProt O15294); test: Assay for OGT; format: biochemical
T2 construct: His tag; made in house; host or cells: E. coli BL21 (DE3) (Novagen)
T2 sequence (O15294 51-920 isoform O15294-2 limits assumed): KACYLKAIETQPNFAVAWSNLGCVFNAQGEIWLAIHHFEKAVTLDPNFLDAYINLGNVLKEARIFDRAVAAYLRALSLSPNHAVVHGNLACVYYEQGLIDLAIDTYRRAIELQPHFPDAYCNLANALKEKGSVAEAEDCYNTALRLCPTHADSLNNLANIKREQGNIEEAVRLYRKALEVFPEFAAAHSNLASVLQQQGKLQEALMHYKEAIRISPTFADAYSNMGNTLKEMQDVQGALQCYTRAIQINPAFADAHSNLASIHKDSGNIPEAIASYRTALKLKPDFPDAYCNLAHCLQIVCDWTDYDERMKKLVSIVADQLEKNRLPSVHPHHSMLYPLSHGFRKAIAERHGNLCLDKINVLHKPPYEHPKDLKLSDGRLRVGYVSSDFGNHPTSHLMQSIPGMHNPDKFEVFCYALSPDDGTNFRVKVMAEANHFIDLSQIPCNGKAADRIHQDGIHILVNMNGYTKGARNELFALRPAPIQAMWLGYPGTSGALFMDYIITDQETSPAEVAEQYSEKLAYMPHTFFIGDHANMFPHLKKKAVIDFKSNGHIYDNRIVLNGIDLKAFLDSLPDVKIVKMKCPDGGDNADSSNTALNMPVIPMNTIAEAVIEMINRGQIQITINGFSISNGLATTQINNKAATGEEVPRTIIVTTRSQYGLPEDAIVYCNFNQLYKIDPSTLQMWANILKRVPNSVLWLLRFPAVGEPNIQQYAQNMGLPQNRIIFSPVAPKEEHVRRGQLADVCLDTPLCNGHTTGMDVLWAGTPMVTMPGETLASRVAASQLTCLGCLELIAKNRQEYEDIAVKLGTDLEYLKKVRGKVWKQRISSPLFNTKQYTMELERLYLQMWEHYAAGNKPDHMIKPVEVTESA
Procedure: The mitochondrial splice variant of OGT, minus the first 50 amino acids, was cloned into pET 32b, and expressed from Novagen BL21 (DE3) cells. The pellet was lysed with B-PER (Pierce) and rLysozyme (Novagen) and the soluble fraction was purified using His-Bind Resin (Novagen). Assay reaction buffer was 10 mM Tris pH 7.4 with 100 μg/mL BSA. […] Inhibitors tested were added in 0.5 μL of DMSO and the final reaction volume was 20 μL. The reactions were quenched after 50 min at room temperature with 10 μL of formic acid and spotted onto phosphocellulose (Whatman P81) paper disks. The disks were washed for 3×5 min with 1% phosphoric acid, 1 min with acetone and dried before counting. The samples were measured by liquid scintillation counting.

MurG [3] = molecular target: T1, MurG; conditions: biotin-capture assay, C10-Lipid I acceptor; cited from earlier work

GtfB, sequence (P96559 whole entry): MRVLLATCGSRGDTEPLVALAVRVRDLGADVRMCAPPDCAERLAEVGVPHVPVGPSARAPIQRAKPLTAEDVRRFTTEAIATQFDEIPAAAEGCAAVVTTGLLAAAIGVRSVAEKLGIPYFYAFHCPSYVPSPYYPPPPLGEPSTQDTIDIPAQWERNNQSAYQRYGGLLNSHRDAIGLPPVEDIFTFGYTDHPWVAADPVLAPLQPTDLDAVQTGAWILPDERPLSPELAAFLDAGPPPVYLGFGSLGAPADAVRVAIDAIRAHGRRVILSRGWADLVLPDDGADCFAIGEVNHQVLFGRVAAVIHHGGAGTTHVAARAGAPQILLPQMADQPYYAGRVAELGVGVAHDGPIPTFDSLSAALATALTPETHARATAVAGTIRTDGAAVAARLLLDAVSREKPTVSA
T1 sequence (P17443 whole entry): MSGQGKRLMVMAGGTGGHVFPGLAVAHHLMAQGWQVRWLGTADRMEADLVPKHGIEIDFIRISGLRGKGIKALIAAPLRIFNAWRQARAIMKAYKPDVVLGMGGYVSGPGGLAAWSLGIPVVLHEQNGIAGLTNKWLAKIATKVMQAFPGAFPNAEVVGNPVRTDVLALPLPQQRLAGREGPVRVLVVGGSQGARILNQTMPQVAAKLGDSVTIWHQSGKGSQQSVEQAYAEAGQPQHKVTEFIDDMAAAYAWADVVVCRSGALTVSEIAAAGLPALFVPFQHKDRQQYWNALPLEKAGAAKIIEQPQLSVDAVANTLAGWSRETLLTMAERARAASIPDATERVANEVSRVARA

| SMILES | Kd (MurG [1]; displacement of F1 from MurG) [µM] | IC50 (GtfB) [µM] | IC50 (MurG [2]) [µM] | IC50 (MurG [3]) [µM] | Signal change at 25 μM (drop in fluorescence polarization) (MurG [1]) [%] | IC50 (PBP1b; read-out: IC50 PBP1b) [µM] | IC50 (OGT; read-out: IC50 OGT) [µM] | other results |
| --- | --- | --- | --- | --- | --- | --- | --- | --- |
| CC(=O)N[C@H]1[C@@H](OP(=O)(O)OP(=O)(O)OC[C@H]2O[C@@H](n3ccc(=O)[nH]c3=O)[C@H](O)[C@@H]2O)O[C@H](CO)[C@@H](O)[C@@H]1O [UDP-GlcNAc, UDP-N-acetylglucosamine] | 1.8 ± 0.2 | – | – | – | – | – | – | – |
| CC(C)(C)c1ccc(OCCOc2cccc(C=C3C(=O)NC(=S)NC3=O)c2)cc1 [Compound 6] | – | 100 | 4 | – | – | – | – | IC50 (PBP1b): > 100 µM; IC50 (OGT): > 100 µM |
| Nc1ncnc2c1ncn2[C@@H]1O[C@H](COP(=O)(O)OP(=O)(O)O)[C@@H](O)[C@H]1O [ADP] | 88.2 ± 26.9 | – | – | 1260 ± 300 | <10 | – | – | – |
| O=C1NC(=O)N(c2ccc(Cl)cc2)C(=O)/C1=C/c1ccc(Br)o1 [Compound 4] | – | 11 | 6.4 | – | – | – | – | IC50 (PBP1b): > 100 µM; IC50 (OGT): > 100 µM |
| CC1CCN(CN2C(=O)/C(=C\c3ccc(C(C)(C)C)cc3)SC2=S)CC1 [Compound 1, 5-(4-tert-Butyl-benzylidene)-3-(4-methyl-piperidin-1-ylmethyl)-2-thioxo-thiazolidin-4-one] | – | 15 | 1.4 | – | – | > 100 | > 100 | inhibition pattern with respect to UDP-GlcNAc (MurG [2]): competitive inhibitors |
| O=C(O)c1ccc(N2C(=O)/C(=C/c3ccc(-c4ccc(Br)cc4)o3)C=C2c2ccccc2)cc1 [Compound 7] | – | 100 | 5.4 | – | – | > 100 | > 100 | inhibition pattern with respect to UDP-GlcNAc (MurG [2]): competitive inhibitors |
| O=C1/C(=C2/C(=O)N(Cc3ccccc3)c3ccc(Br)cc32)SC(=S)N1CCS(=O)(=O)O [Compound 3] | – | 15 | 3.5 | – | – | > 100 | > 100 | – |
| O=C(O)CN1C(=O)/C(=C\c2cc(Cl)cc(Br)c2O)SC1=S [Compound 2] | – | 4 | 3.4 | – | – | > 100 | > 100 | – |
| O=c1ccn([C@@H]2O[C@H](COP(=O)(O)O)[C@@H](O)[C@H]2O)c(=O)[nH]1 [UMP] | 99.6 ± 12.2 | – | – | 600 ± 50 | <10 | – | – | – |
| CC(=O)N[C@H]1[C@@H](OP(=O)(O)OP(=O)(O)OC[C@H]2O[C@@H](n3ccc(=O)[nH]c3=O)[C@H](O)[C@@H]2O)O[C@H](CO)[C@H](O)[C@@H]1O [UDP-GalNAc] | 73.1 ± 14.1 | – | – | > 1000 | 10 | – | – | – |
| Cc1cc(/C=C2\C(=O)NC(=S)N(c3cccc(Cl)c3)C2=O)c(C)n1-c1cc(C(=O)O)cc(C(=O)O)c1 [Compound 5] | – | 50 | 1.4 | – | – | – | – | inhibition pattern with respect to UDP-GlcNAc (MurG [2]): competitive inhibitors; IC50 (PBP1b): > 100 µM; IC50 (OGT): > 100 µM |
| O=c1ccn([C@@H]2O[C@H](COP(=O)(O)OP(=O)(O)O)[C@@H](O)[C@H]2O)c(=O)[nH]1 [UDP, uridine diphosphate] | – | – | – | 65 ± 1 | 50 | – | – | inhibition at 5 µM (MurG [2]; read-out: inhibition of MurG reaction (drop in product formation)): 50%; polarization reading relative to wells containing only MurG and labeled donor (MurG [1]; 25 μM UDP control well): approximately 50%; Kd (MurG [1]): 2.6 ± 0.2 µM |

Source: patent US7344850B2, “Identification of active-site inhibitors of glycosyltransferases using a generalizable high-throughput screen” (Princeton University, priority 2003, dated 2008)
